Assay results from US9186406B2, “Compositions containing nucleosides and manganese and their uses” (The Henry M. Jackson Foundation for Advancement of Military …, priority 2007, dated 2015).

Tests used:
[1] = system: Purified E. coli proteins; assay: protein carbonyl assay of purified E. coli proteins irradiated in vitro; assay type: biochemical; conditions: for prevention of ionizing radiation (IR)-induced protein oxidation (carbonylation) in vitro: purified E. coli proteins incubated with the agent during irradiation, Carbonyl Western blot
Procedure: Purified E. coli proteins were incubated in PP-, EC-, or DR-ultra-filtrated extract during irradiation, and subjected to a protein carbonyl assay.
Purified E. coli proteins were incubated with the indicated agents.

[2] = target: T1, restriction enzyme BamH1 (Bacillus amyloliquefaciens, UniProt P23940); assay type: biochemical; conditions: exposure to 17,500 Gy; 25 mM potassium phosphate buffer; 3 mM adenosine, 1 mM MnCl2
T1 sequence (P23940 1-213): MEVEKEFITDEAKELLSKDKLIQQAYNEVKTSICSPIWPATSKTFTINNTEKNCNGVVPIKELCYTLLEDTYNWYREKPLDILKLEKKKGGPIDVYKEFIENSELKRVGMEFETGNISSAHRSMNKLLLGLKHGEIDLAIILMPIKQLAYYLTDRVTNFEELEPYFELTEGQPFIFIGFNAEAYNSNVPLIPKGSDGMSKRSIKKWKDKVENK
Procedure: Post-irradiation functionality of restriction enzyme BamH1 after indicated treatment and incubation with 1-DNA.

[3] = system: hFOB cells; assay: apoptosis assay (Annexin V / PI flow cytometry) of hFOB cells 6 days after IR; assay type: cell-based, Human; conditions: for radioprotection of a mammalian cell line: agent alone; for Annexin V + / Annexin-V + PI / Live Cells / PI: hFOB cells 6 days after IR, adenosine 10 mM, MnCl2 0.25 mM, added 3 h before IR
Procedure: Apoptosis of Human Fetal Osteoblastic 1.19 cell line from ATCC (hFOB) was determined by death and apoptotic markers (Annexin V and propidium iodide PI) using a flow cytometry assay. In brief, hFOB cells were cultured in DMEM-F12 with 10% fetal bovine serum, 2.5 mM L-glutamine and 1% antibiotic to full confluency followed by treatment for experimental groups with adenosine (10 mM) or MnCl2 (0.25 mM) or adenosine and MnCl2 for 6 days period starting 3 h before IR. Apoptotic cell death was measured by flow cytometry with Annexin V and PI staining 6 days after IR. hFOB cells also were plated (1×10^3/well, 6-well plate) for clonogenic survival assay after IR. Colonies were counted 10 days later.
For the assays, adenosine+/−0.25 mM Mn(II) was added 3 hours prior to irradiation. Cells were assayed 6 days after irradiation by flow cytometry. Annexin-V conjugates allow for the identification of cell surface changes that occur early during the apoptotic process using flow cytometry. Early in the apoptotic process, phosphatidylserine becomes exposed on the cell surface. Propidium Iodide (PI) in un-fixed cells discriminates between apoptosis and necrosis on the basis of dye exclusion. While necrotic cells lose membrane integrity early on in their death throws, apoptotic cells may have compromised membranes.

In the case of `O=c1ccn([C@@H]2O[C@H](CO)[C@@H](O)[C@H]2O)c(=O)[nH]1` [uridine], the “prevention of ionizing radiation (IR)-induced protein oxidation (carbonylation) in vitro” value [1] is reported as “prevent ionizing radiation (IR)-induced protein oxidation in vitro”.
With `Nc1ncnc2c1ncn2[C@@H]1O[C@H](CO)[C@@H](O)[C@H]1O` [Adenosine, adenosine] the “BamH1 functionality after irradiation” value [2] was “not”, the “radioprotection of a mammalian cell line” value [3] was “radioprotective” and the “Annexin V +” value ([3]; 0 Gy) was 2%. For the same molecule, the “Annexin-V + PI” value ([3]; 0 Gy) was 1%, the “Live Cells” value ([3]; 0 Gy) was 85% and the PI ([3]; 0 Gy) was 13%. For the same molecule, the “Annexin V +” value ([3]; 8 Gy) was 3%, the “Annexin-V + PI” value ([3]; 8 Gy) was 2% and the “Live Cells” value ([3]; 8 Gy) was 85%. The PI ([3]; 8 Gy) was 10%, the “protection of proteins from oxidation during irradiation” value ([1]; potassium phosphate buffer (PPB/25 mM)+15 mM adenosine, compared to buffer alone) was “highly protected from oxidation” and the “prevention of ionizing radiation (IR)-induced protein oxidation (carbonylation) in vitro” value [1] was “prevent ionizing radiation (IR)-induced protein oxidation in vitro”.
With `[Cl][Mn][Cl]` [Mn, MnCl2] the “BamH1 functionality after irradiation” value [2] was “not”, the “radioprotection of a mammalian cell line” value [3] was “radioprotective” and the “Annexin V +” value ([3]; 0 Gy) was 0%. The “Annexin-V + PI” value ([3]; 0 Gy) was 0%, the “Live Cells” value ([3]; 0 Gy) was 86% and the PI ([3]; 0 Gy) was 14%. The “Annexin V +” value ([3]; 8 Gy) was 21%, the “Annexin-V + PI” value ([3]; 8 Gy) was 2% and the “Live Cells” value ([3]; 8 Gy) was 70%. For the same molecule, the PI ([3]; 8 Gy) was 7%.
